Experimental data: ChEMBL document CHEMBL1909046, “DrugMatrix in vitro pharmacology data”

Legend:
[1] = biological target: Sodium-dependent noradrenaline transporter (Homo sapiens, UniProt P23975); assay: DRUGMATRIX: Norepinephrine Transporter radioligand binding (ligand: [125I] RTI-55); type: cell membranes, MDCK, Membrane; conditions: Not Active = under 50% inhibition at 10 µM; for Ki: read-out: Ki
[2] = biological target: T1, Thromboxane-A synthase (Homo sapiens, UniProt P24557); assay: biochemical; type: tissue-based, Platelet;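 further: enzyme inhibition assay with PGH2 supplied as substrate; in other assays of this panel Not Active means under 50% inhibition at 10 µM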
T1 sequence (P24557 whole entry): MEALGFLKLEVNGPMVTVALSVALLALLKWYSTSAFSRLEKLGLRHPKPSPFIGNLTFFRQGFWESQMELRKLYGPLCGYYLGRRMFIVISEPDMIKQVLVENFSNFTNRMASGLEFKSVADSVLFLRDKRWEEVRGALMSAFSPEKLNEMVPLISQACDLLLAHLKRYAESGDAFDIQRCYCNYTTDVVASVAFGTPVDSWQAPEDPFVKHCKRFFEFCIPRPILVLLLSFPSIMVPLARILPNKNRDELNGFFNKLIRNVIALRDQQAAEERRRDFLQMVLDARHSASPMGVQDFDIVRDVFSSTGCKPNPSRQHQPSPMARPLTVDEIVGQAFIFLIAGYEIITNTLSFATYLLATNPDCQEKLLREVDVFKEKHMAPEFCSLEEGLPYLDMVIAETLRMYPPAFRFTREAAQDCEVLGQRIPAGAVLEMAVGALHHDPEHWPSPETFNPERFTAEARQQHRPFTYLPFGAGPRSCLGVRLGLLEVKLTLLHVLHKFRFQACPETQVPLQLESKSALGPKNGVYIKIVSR

[3] = biological target: C-C chemokine receptor type 2 (Homo sapiens, UniProt P41597); type: cell membranes, CHO-K1, Membrane; conditions: cho-k1; further: in other assays of this panel Not Active means under 50% inhibition at 10 µM
[4] = biological target: T2, Cysteinyl leukotriene receptor 1 (Homo sapiens, UniProt Q9Y271); type: cell membranes, CHO-K1, Membrane; conditions: cho-k1; further: in other assays of this panel Not Active means under 50% inhibition at 10 µM
T2 sequence (Q9Y271 whole entry): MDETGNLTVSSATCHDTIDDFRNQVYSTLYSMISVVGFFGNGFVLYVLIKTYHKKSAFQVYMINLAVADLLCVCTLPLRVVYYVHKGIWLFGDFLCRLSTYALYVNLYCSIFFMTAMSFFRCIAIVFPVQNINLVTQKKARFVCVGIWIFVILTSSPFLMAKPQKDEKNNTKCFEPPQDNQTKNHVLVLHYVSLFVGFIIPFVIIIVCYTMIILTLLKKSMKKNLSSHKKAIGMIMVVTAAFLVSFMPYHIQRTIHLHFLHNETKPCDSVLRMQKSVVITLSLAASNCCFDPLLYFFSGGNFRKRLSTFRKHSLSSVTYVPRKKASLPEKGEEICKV

[5] = biological target: Melanocortin receptor 5 (Homo sapiens, UniProt P33032); type: cell membranes, Membrane; conditions: hek293; further: in other assays of this panel Not Active means under 50% inhibition at 10 µM
[6] = DRUGMATRIX: Phosphodiesterase PDE3 enzyme inhibition (substrate: [3H]cAMP + cAMP); type: tissue-based, Homo sapiens; conditions: platelet; Not Active = under 50% inhibition at 10 µM
[7] = DRUGMATRIX: Platelet-Derived Growth Factor (PDGF) radioligand binding (ligand: [125I] PDGF); type: cell-based; conditions: nih3t3; Not Active = under 50% inhibition at 10 µM
[8] = biological target: Matrix metalloproteinase-9 (Homo sapiens, UniProt P14780); assay: biochemical; type: cell-based
[9] = biological target: T3, Adenosine receptor A1 (Homo sapiens, UniProt P30542); type: cell membranes, Membrane; conditions: cho
T3 sequence (P30542 whole entry): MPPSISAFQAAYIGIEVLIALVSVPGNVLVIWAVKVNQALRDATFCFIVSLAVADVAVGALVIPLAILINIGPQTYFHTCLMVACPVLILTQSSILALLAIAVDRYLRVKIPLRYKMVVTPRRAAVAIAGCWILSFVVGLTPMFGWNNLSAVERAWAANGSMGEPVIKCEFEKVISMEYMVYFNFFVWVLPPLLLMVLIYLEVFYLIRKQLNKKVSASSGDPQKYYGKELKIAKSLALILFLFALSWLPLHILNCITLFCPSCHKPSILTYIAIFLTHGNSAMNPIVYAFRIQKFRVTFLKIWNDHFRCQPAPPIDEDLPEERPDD

[10] = biological target: T4, Cytochrome P450 1A2 (Homo sapiens, UniProt P05177); conditions: bti-tn-5b1-4; further: in other assays of this panel Not Active means under 50% inhibition at 10 µM
T4 sequence (P05177 whole entry): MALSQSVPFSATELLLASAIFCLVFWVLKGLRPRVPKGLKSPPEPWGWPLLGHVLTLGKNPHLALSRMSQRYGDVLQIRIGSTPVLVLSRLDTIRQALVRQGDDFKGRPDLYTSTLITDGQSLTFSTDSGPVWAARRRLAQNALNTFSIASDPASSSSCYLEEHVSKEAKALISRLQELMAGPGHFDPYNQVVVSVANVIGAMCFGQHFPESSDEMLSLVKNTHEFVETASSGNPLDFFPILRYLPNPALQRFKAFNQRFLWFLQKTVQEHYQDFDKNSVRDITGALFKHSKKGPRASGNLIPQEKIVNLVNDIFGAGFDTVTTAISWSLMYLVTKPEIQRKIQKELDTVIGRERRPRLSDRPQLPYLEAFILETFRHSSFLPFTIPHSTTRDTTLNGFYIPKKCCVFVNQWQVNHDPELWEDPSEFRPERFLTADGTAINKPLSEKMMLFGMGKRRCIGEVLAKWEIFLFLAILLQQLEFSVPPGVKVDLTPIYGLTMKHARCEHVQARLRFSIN

Sodium-dependent noradrenaline transporter, sequence (P23975 whole entry): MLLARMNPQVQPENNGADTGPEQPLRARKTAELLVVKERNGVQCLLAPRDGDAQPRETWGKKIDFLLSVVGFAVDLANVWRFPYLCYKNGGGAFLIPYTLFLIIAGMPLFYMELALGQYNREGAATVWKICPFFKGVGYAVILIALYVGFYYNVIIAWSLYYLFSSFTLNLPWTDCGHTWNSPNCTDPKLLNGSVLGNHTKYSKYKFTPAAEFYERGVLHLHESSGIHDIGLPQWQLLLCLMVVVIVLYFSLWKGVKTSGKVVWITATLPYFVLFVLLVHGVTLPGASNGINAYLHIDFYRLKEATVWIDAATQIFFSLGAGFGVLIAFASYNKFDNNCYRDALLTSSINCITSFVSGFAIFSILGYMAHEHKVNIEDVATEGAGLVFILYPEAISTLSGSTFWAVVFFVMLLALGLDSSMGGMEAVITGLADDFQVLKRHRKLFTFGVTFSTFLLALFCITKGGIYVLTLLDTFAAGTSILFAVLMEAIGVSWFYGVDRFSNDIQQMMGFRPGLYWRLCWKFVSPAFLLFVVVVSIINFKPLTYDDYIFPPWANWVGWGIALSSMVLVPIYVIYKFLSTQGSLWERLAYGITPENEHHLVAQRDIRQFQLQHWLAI
Melanocortin receptor 5, sequence (P33032 whole entry): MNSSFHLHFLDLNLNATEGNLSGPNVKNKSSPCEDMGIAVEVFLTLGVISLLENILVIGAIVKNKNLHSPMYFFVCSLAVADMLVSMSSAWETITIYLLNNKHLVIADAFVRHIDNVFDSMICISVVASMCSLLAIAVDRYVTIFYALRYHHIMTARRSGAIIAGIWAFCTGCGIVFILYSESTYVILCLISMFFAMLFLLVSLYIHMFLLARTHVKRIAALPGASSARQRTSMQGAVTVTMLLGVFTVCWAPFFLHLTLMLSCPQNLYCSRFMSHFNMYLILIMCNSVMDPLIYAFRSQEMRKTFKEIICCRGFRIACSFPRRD
Matrix metalloproteinase-9, sequence (P14780 whole entry): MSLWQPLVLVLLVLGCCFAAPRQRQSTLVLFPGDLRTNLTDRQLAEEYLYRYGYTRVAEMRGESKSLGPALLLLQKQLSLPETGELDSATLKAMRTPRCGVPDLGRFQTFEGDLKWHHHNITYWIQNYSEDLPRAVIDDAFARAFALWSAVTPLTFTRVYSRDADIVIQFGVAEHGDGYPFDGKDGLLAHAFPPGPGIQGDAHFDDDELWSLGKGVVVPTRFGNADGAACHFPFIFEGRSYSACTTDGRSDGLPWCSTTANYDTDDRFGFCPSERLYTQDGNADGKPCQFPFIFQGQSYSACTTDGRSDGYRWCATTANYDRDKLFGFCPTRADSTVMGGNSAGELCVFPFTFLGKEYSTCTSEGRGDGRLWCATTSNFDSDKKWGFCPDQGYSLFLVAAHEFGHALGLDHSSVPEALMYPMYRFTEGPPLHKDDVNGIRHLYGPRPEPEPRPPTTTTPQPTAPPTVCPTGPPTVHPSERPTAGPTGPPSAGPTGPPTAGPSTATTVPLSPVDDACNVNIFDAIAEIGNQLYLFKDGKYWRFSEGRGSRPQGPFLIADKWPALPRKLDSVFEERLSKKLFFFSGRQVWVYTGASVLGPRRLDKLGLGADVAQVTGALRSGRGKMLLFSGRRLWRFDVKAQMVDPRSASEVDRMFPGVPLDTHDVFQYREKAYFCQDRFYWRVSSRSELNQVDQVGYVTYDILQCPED
C-C chemokine receptor type 2, sequence (P41597 whole entry): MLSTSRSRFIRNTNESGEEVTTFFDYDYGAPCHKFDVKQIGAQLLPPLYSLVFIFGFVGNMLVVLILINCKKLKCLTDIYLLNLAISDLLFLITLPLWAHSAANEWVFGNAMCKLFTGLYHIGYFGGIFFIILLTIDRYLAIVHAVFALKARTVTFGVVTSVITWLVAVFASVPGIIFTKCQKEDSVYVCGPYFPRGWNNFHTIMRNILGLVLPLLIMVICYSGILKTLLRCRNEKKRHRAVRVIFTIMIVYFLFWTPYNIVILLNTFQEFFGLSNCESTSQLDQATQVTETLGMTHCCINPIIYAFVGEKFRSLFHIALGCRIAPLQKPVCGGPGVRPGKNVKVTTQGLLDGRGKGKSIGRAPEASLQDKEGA

CO[C@H]1/C=C/O[C@@]2(C)Oc3c(C)c(O)c4c(c3C2=O)C2=NC3(CCN(CC(C)C)CC3)NC2=C(NC(=O)/C(C)=C\C=C\[C@H](C)[C@H](O)[C@@H](C)[C@@H](O)[C@@H](C)[C@H](OC(C)=O)[C@@H]1C)C4=O [RIFABUTIN]
IC50 ([1]; mdck): Not Active
IC50 ([2]; platelet): Not Active
IC50 [3]: Not Active
IC50 [4]: Not Active
IC50 [5]: Not Active
IC50 [6]: Not Active
Ki [6]: Not Active
IC50 [7]: Not Active
Ki [7]: Not Active
IC50 [8]: Not Active
IC50 [9]: Not Active
IC50 [10]: Not Active
Ki [10]: Not Active

[H]/N=C(/N)N[C@H]1[C@H](O)[C@@H](O)[C@H](O[C@@H]2O[C@@H](C)[C@](O)(C=O)[C@H]2O[C@@H]2O[C@@H](CO)[C@H](O)[C@@H](O)[C@@H]2NC)[C@@H](N/C(N)=N\[H])[C@@H]1O [STREPTOMYCIN]
IC50 ([1]; mdck): Not Active
IC50 ([2]; platelet): Not Active
IC50 [3]: Not Active
IC50 [4]: Not Active
IC50 [5]: Not Active
IC50 [6]: Not Active
Ki [6]: Not Active
IC50 [7]: Not Active
Ki [7]: Not Active
IC50 [8]: Not Active
IC50 [9]: Not Active
IC50 [10]: Not Active
Ki [10]: Not Active

COc1cc(NS(=O)(=O)c2ccc(N)cc2)nc(OC)n1 [SULFADIMETHOXINE]
IC50 ([1]; mdck): Not Active
IC50 ([2]; platelet): Not Active
IC50 [3]: Not Active
IC50 [4]: Not Active
IC50 [5]: Not Active
IC50 [6]: Not Active
Ki [6]: Not Active
IC50 [7]: Not Active
Ki [7]: Not Active
IC50 [8]: Not Active
IC50 [9]: Not Active
IC50 [10]: Not Active
Ki [10]: Not Active

Cc1cc(C)nc(NS(=O)(=O)c2ccc(N)cc2)n1 [SULFAMETHAZINE]
IC50 ([1]; mdck): Not Active
IC50 ([2]; platelet): Not Active
Ki [3]: Not Active
IC50 [4]: Not Active
IC50 [5]: Not Active
IC50 [6]: Not Active
Ki [6]: Not Active
IC50 [7]: Not Active
Ki [7]: Not Active
IC50 [8]: Not Active
IC50 [9]: Not Active
IC50 [10]: Not Active
Ki [10]: Not Active

C[C@]1(Cn2ccnn2)[C@H](C(=O)O)N2C(=O)C[C@H]2S1(=O)=O [TAZOBACTAM]
IC50 ([1]; mdck): Not Active
IC50 ([2]; platelet): Not Active
IC50 [3]: Not Active
IC50 [4]: Not Active
IC50 [5]: Not Active
IC50 [6]: Not Active
Ki [6]: Not Active
IC50 [7]: Not Active
Ki [7]: Not Active
IC50 [8]: Not Active
IC50 [9]: Not Active
IC50 [10]: Not Active
Ki [10]: Not Active

CN1C(C(=O)Nc2ccccn2)=C(O)c2sccc2S1(=O)=O [TENOXICAM]
IC50 ([1]; mdck): Not Active
IC50 ([2]; platelet): Not Active
IC50 [3]: Not Active
IC50 [4]: Not Active
IC50 [5]: Not Active
IC50 [6]: Not Active
Ki [6]: Not Active
IC50 [7]: Not Active
Ki [7]: Not Active
IC50 [8]: Not Active
IC50 [9]: Not Active
IC50 [10]: Not Active
Ki [10]: Not Active

O=C1CCC(N2C(=O)c3ccccc3C2=O)C(=O)N1 (centres undefined) [THALIDOMIDE]
IC50 ([1]; mdck): Not Active
IC50 ([2]; platelet): Not Active
IC50 [3]: Not Active
IC50 [4]: Not Active
IC50 [5]: Not Active
IC50 [6]: Not Active
Ki [6]: Not Active
IC50 [7]: Not Active
Ki [7]: Not Active
IC50 [8]: Not Active
IC50 [9]: Not Active
IC50 [10]: Not Active
Ki [10]: Not Active

Cc1cccc(Nc2ccncc2S(=O)(=O)NC(=O)NC(C)C)c1 [TORSEMIDE]
IC50 ([1]; mdck): Not Active
IC50 ([2]; platelet): Not Active
IC50 [3]: Not Active
IC50 [4]: Not Active
IC50 [5]: Not Active
IC50 [6]: Not Active
Ki [6]: Not Active
IC50 [7]: Not Active
Ki [7]: Not Active
IC50 [8]: Not Active
IC50 [9]: Not Active
IC50 [10]: Not Active
Ki [10]: Not Active

CC(C)C[C@H](NC(=O)[C@@H](O)[C@H](N)Cc1ccccc1)C(=O)O [UBENIMEX]
IC50 ([1]; mdck): Not Active
IC50 ([2]; platelet): Not Active
IC50 [3]: Not Active
IC50 [4]: Not Active
IC50 [5]: Not Active
IC50 [6]: Not Active
Ki [6]: Not Active
IC50 [7]: Not Active
Ki [7]: Not Active
IC50 [8]: Not Active
IC50 [9]: Not Active
IC50 [10]: Not Active
Ki [10]: Not Active

Cc1onc(-c2ccccc2)c1-c1ccc(S(N)(=O)=O)cc1 [VALDECOXIB]
IC50 ([1]; read-out: IC50): 2930 nM
Ki [1]: 2900 nM
IC50 ([2]; platelet): Not Active
IC50 [3]: Not Active
IC50 [4]: Not Active
IC50 [5]: Not Active
IC50 [6]: Not Active
Ki [6]: Not Active
IC50 [7]: Not Active
Ki [7]: Not Active
IC50 [8]: Not Active
IC50 [9]: Not Active
IC50 [10]: Not Active
Ki [10]: Not Active

CC[C@]1(O)C[C@@H]2CN(CCc3c([nH]c4ccccc34)[C@@](C(=O)OC)(c3cc4c(cc3OC)N(C)[C@H]3[C@@](O)(C(=O)OC)[C@H](OC(C)=O)[C@]5(CC)C=CCN6CC[C@]43[C@@H]65)C2)C1 [VINBLASTINE]
IC50 ([1]; mdck): Not Active
IC50 ([2]; read-out: IC50): 1870 nM
IC50 [3]: Not Active
IC50 [4]: Not Active
IC50 [5]: Not Active
IC50 [6]: Not Active
Ki [6]: Not Active
IC50 [7]: Not Active
Ki [7]: Not Active
IC50 [8]: Not Active
IC50 [9]: Not Active
IC50 [10]: Not Active
Ki [10]: Not Active

CC(=O)CC(c1ccccc1)c1c(O)c2ccccc2oc1=O (centres undefined) [WARFARIN]
IC50 ([1]; mdck): Not Active
IC50 ([2]; platelet): Not Active
IC50 [3]: Not Active
IC50 [4]: Not Active
IC50 [5]: Not Active
IC50 [6]: Not Active
Ki [6]: Not Active
IC50 [7]: Not Active
Ki [7]: Not Active
IC50 [8]: Not Active
IC50 [9]: Not Active
IC50 [10]: Not Active
Ki [10]: Not Active

C[C@@H](N)[C@H]1CC[C@H](C(=O)Nc2ccncc2)CC1 [Y-27632]
IC50 ([1]; mdck): Not Active
IC50 ([2]; platelet): Not Active
IC50 [3]: Not Active
IC50 [4]: Not Active
IC50 [5]: Not Active
IC50 [6]: Not Active
Ki [6]: Not Active
IC50 [7]: Not Active
Ki [7]: Not Active
IC50 [8]: Not Active
IC50 [9]: Not Active
IC50 [10]: Not Active
Ki [10]: Not Active

[Cl-].[Cl-].[Zn+2] [ZINC CHLORIDE]
IC50 ([1]; read-out: IC50): 7010 nM
Ki [1]: 6950 nM
IC50 ([2]; platelet): Not Active
IC50 [3]: Not Active
IC50 [4]: Not Active
IC50 [5]: Not Active
IC50 [6]: Not Active
Ki [6]: Not Active
IC50 [7]: Not Active
Ki [7]: Not Active
IC50 [8]: Not Active
IC50 [9]: Not Active
IC50 [10]: Not Active
Ki [10]: Not Active
